Measured values as given in article PMC9181126, “Design, Synthesis, Molecular Docking Analysis and Biological Evaluations of 4-[(Quinolin-4-yl)amino]benzamide Derivatives as Novel Anti-Influenza Virus Agents” (International Journal of Molecular Sciences, 2022).
“And” between values parts separate entries of the source, which are not always exact repeats. Equal entries are not always repeated.

Experiments:
in vitro [1] = assay type: cell-based; settings: human
Description: (§1) The 3-(4,5-dimethylthiazol-2-yl)-2,5-diphenyltetrazolium bromide (MTT) method was performed to assess the cytotoxicity of target compounds in MDCK cells and HEK293T cells. Firstly, MDCK cells or HEK293T cells were seeded into the 96-well plate. Then, the media containing test compounds replaced the growth media after 48 h. Incubate MDCK cells or HEK293T cells with test compounds for 72 h at 37 °C in a humidified 5% CO2 incubator. Later, MTT solution (5 mg/mL in PBS) was added into each well and plates were incubated for 4 h at 37 °C. Then, add a solubilization solution to lyse cells. Finally, absorbance was read at 620 nm using an ELISA plate reader (Tecan Sunrise) after 3 h of further incubation at 37 °C. We set the values obtained from the wells treated with only DMSO as 100% of viable cells.

HEK293T cells = assay: in vitro; assay type: cell-based; settings: human, 72 h
Description: as §1

MDCK cells = assay: in vitro; assay type: cell-based, canine; settings: dog, 72 h
Description: as §1

in vitro [2] = assay type: cell-based, canine; settings: dog
Description: as §1

[3] = tested on: influenza virus A/WSN/33 (H1N1); assay: Plaque inhibition assay in MDCK cells; assay type: cell-based; settings: MDCK, read-out: Plaque Inhibition Assay (A/WSN/33, H1N1) Inhibition Rate; for inhibition at 25 µM: concentration 25 µM; for inhibition at 12.5 µM: concentration 12.5 µM; for inhibition at 100 µM: concentration 100 µM
[4] = tested on: influenza virus A/WSN/33 (H1N1); assay: microbe, parasite or virus in culture; assay type: cell-based; settings: MDCK, 72 h; for inhibition at 12.5 µM / inhibition at 25 µM / inhibition at 50 µM / inhibition at 100 µM: H1N1|WSN, read-out: Antiviral activity in CPE assay; for EC50: read-out: Cytopathic Effect Assay (A/WSN/33, H1N1) EC50
PA-PB1 endonuclease = tested on: PA-PB1 endonuclease; set-up: method as in supplement 1-7; settings: training and test set compounds collected from literature; ref supplement 1-7; read-out: IC50 value Experimental (PA-PB1 endonuclease inhibitors); cited from earlier work

Compound	melting point	CC50 at 72 h (in vitro [1])	HEK293T cells survival rate (HEK293T cells; 3.125 µmol·L−1)	HEK293T cells survival rate (HEK293T cells; 6.25 µmol·L−1)	HEK293T cells survival rate (HEK293T cells; 12.5 µmol·L−1)	HEK293T cells survival rate (HEK293T cells; 25 µmol·L−1)	HEK293T cells survival rate (HEK293T cells; 50 µmol·L−1)	HEK293T cells survival rate (HEK293T cells; 100 µmol·L−1)	MDCK cells survival rate (MDCK cells; 12.5 µmol·L−1)	MDCK cells survival rate (MDCK cells; 25 µmol·L−1)	MDCK cells survival rate (MDCK cells; 50 µmol·L−1)	MDCK cells survival rate (MDCK cells; 100 µmol·L−1)	CC50 at 72 h (in vitro [2])	inhibition at 12.5 µM [4]	inhibition at 25 µM [4]	inhibition at 50 µM [4]	inhibition at 100 µM [4]	EC50 [4]	IC50 (PA-PB1 endonuclease)	other results
O=C(NCCCN1CCOCC1)c1ccc(Nc2ccnc3cc(C(F)(F)F)ccc23)cc1 [Compound G08, N-(3-Morpholinopropyl)-4-{[7-(trifluoromethyl)quinolin-4-yl]amino}benzamide]	207.3 to 209.1 °C	> 100 µM	100.86±3.39%	97.00±3.10%	95.72±3.30%	95.56±2.29%	98.07±1.80%	112.13±1.41%	95.86±1.24%	76.43±4.79%	75.20±0.25%	78.41±2.97%	> 100 µM	44.3 ± 3.44%	45.6 ± 9.4%	31.1 ± 8.71%	15.4 ± 0.23%	> 100 µM	–	inhibition at 25 µM [3]: 11.5%
NC(=O)c1c(NC(=O)c2nc3nc(-c4ccccc4)cc(C(F)(F)F)n3n2)sc2c1CCCC2 [Compound H02, N-(3-carbamoyl-4,5,6,7-tetrahydrobenzo[b]thiophen-2-yl)-5-phenyl-7-(trifluoromethyl)-[1,2, 4]triazolo[1,5-a]pyrimidine-2-carboxamide]	–	–	–	–	–	–	–	–	–	–	–	–	–	–	–	–	–	–	7.5 µM and 6.2 µM	–
Cc1ccc(N2CCN(C(=O)c3ccc(Nc4ccnc5cc(C(F)(F)F)ccc45)cc3)CC2)cc1 [Compound G14, [4-(P-tolyl)piperazin-1-yl]{4-{[7-(trifluoromethyl)quinolin-4-yl]amino}phenyl}methanone]	192 to 193.8 °C	> 100 µM	105.78±7.34%	95.00±7.82%	89.38±1.59%	80.67±2.20%	76.77±5.03%	77.49±2.55%	82.40±6.45%	91.16±1.34%	72.26±17.99%	56.76±2.08%	> 100 µM	16.43 ± 0.12%	20.7 ± 3.82%	23.4 ± 2.31%	27.9 ± 2.05%	> 100 µM	–	inhibition at 25 µM [3]: < 10%
O=C1c2ccccc2C(=O)c2c1cc(Nc1ccccc1)c1nsnc21 [Compound H10]	–	–	–	–	–	–	–	–	–	–	–	–	–	–	–	–	–	–	9.5 µM	–
CCC(C)NC(=O)c1ccccc1NC(=O)c1cccc(S(=O)(=O)Nc2ccccc2)c1 (centres unmarked) [Compound H04]	–	–	–	–	–	–	–	–	–	–	–	–	–	–	–	–	–	–	9.2 µM	–
O=C(NC1CCCCC1)c1ccc(Nc2ccnc3cc(C(F)(F)F)ccc23)cc1 [Compound G09, N-Cyclohexyl-4-{[7-(trifluoromethyl)quinolin-4-yl]amino}benzamide]	236.5 to 237.3 °C	> 100 µM	106.48±6.90%	98.20±3.74%	92.83±3.70%	96.79±0.62%	101.55±2.23%	81.22±3.80%	156.36±6.13%	124.74±4.87%	130.46±12.65%	133.61±3.89%	> 100 µM	31.9 ± 0.69%	22.9 ± 3.9%	21.4 ± 0.92%	23.2 ± 3.9%	> 100 µM	–	inhibition at 12.5 µM [3]: 46.9%
COc1ccccc1OCCNC(=O)c1ccc(Nc2ccnc3ccc(Cl)cc23)cc1 [Compound G25, N-[2-(2-Methoxyphenoxy)ethyl]-4-[(6-chloroquinolin-4-yl)amino]benzamide]	247.7 to 248.4 °C	> 100 µM	104.71±1.87%	103.50±6.33%	99.13±1.95%	65.73±7.64%	101.61±11.65%	110.35±11.54%	92.58±5.23%	85.96±5.73%	86.83±3.19%	79.32±11.90%	> 100 µM	26.1 ± 0.67%	25.7 ± 2.29%	22.5 ± 1.29%	22.3 ± 0.4%	> 100 µM	–	inhibition at 100 µM [3]: 0%
Cc1cc(-c2ccccc2)n2nc(C(=O)Nc3sc4c(c3C(N)=O)CCC4)nc2n1 [Compound H03]	–	–	–	–	–	–	–	–	–	–	–	–	–	–	–	–	–	–	6.2 µM and 7.5 µM	–
CCN(CC)CCCNC(=O)c1ccc(Nc2ccnc3cc(C(F)(F)F)ccc23)cc1 [Compound G06, N-[3-(Diethylamino)propyl]-4-{[7-(trifluoromethyl)quinolin-4-yl]amino}benzamide]	216.5 to 219.3 °C	> 100 µM	107.15±2.76%	90.35±0.85%	96.59±4.26%	85.50±2.49%	85.25±2.63%	76.47±9.94%	95.22±3.96%	96.67±0.91%	84.01±5.28%	79.75±2.72%	> 100 µM	16.7 ± 1.15%	13.1 ± 0.69%	12.8 ± 0.69%	11.2 ± 0.23%	> 100 µM	–	inhibition at 12.5 µM [3]: < 10%
O=C(NC1CCC(O)CC1)c1ccc(Nc2ccnc3cc(C(F)(F)F)ccc23)cc1 (centres unmarked) [Compound G10, N-(4-Hydroxycyclohexyl)-4-{[7-(trifluoromethyl)quinolin-4-yl]amino}benzamide]	324 to 325 °C	> 100 µM	108.01±12.84%	104.56±4.92%	98.12±8.96%	98.50±8.84%	99.09±8.41%	109.24±7.99%	84.64±7.10%	109.11±15.21%	127.95±8.15%	110.17±2.79%	> 100 µM	48.9 ± 2.01%	58 ± 1.69%	66.2 ± 2.87%	63.8 ± 5.18%	10.4 ± 0.22 µM	–	inhibition at 100 µM [3]: 7.41%
O=C(O)c1ccc(Nc2ccnc3cc(C(F)(F)F)ccc23)cc1 [4-{[7-(Trifluoromethyl)quinolin-4-yl]amino}benzoic acid]	323.7 to 324.9 °C	–	–	–	–	–	–	–	–	–	–	–	–	–	–	–	–	22.9 µM	–	inhibition at 50 µM ([3]; concentration 50 µM): 50%
Cc1cc(-c2ccccc2)n2nc(C(=O)Nc3sc4c(c3C(N)=O)CCCCC4)nc2n1 [Compound H01]	–	–	–	–	–	–	–	–	–	–	–	–	–	–	–	–	–	–	1.1 µM	–
O=C(c1ccc(Nc2ccnc3cc(C(F)(F)F)ccc23)cc1)N1CCN(c2cccc(C(F)(F)F)c2)CC1 [Compound G16, {4-[3-(Trifluoromethyl)phenyl]piperazin-1-yl}{4-{[7-(trifluoromethyl)quinolin-4-yl]amino}phenyl}methanone]	217 to 218.5 °C	> 100 µM	89.31±3.06%	79.52±2.87%	80.26±3.54%	75.35±5.51%	70.68±3.36%	66.51±2.68%	83.03±1.26%	85.52±2.56%	92.23±7.81%	103.91±10.21%	> 100 µM	15.7 ± 1.33%	36.8 ± 3.16%	33.8 ± 2.71%	45.7 ± 2.09%	> 100 µM	–	–
